Source: US11613558B2, “Peptides and pharmaceutical compositions for treating eye diseases” (Yuyu Pharma, Inc., priority 2018, dated 2023)
Numbered stars: 1 amine (or outer) side, 2 acyl side, 3 side chain; on linkers, the order of the positions; unused ones are H or OH. Square brackets hold non-standard residues; d marks the D form. Peptide text beside a SMILES is read from it. ξ: configuration not given here. Pro(4-oxo) = O=C1CN[C@H](C(=O)O)C1; cisHyp = O=C(O)[C@@H]1C[C@H](O)CN1; X1 = O=C([C@H](CCCCO)N[*:1])[*:2]; Hyp = O=C(O)[C@@H]1C[C@@H](O)CN1; Ile(3ξ) = CCC(C)[C@H](N)C(=O)O; pGlu = O=C1CC[C@@H](C(=O)O)N1

What was measured:
[1] = tested on: rats with dry eye syndrome (extraorbital lacrimal gland excision, ELGE); assay: Amount of tear secretion (Schirmer test, cobalt chloride paper) in ELGE rats with dry eye syndrome; type: in vivo, rat; conditions: for Tear Volumes, Day 7 / Tear Volumes, Day 14: ELGE rats, 3 mg/ml, 5 μl/eye twice daily; for Tear Volumes, Day 7: day 7 of administration; for Tear Volumes, Day 14: day 14 of administration; for Change in amount of tear secretion as compared with the ELGE control group: 3% solution as printed, after administration for 14 days
Procedure, shortened: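 Dry eye induced in male Sprague-Dawley rats by extraorbital lacrimal gland excision; sham-operated controls. From 7 days post-surgery, 3 mg/ml test compounds in saline given topically at 5 μl/eye twice daily for 14 days. Tear secretion measured on days 7 and 14 as wetted length of cobalt chloride paper held 60 s in the lateral canthus.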

[2] = tested on: cornea of rats with dry eye syndrome (ELGE); assay: Corneal permeability of fluorescent dye (corneal damage) in ELGE rats with dry eye syndrome; type: in vivo, rat; conditions: 5 μl/eye twice daily, day 14
Procedure, shortened: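 Dry eye induced in male Sprague-Dawley rats by extraorbital lacrimal gland excision; from day 7, 3 mg/ml compound in saline given at 5 μl/eye twice daily. After 14 doses, rats anaesthetized (Zolethyl 25 mg/kg ip), 1% fluorescein applied 1 h, and corneal staining read 12-24 h later by slit-lamp under blue light.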

[3] = Stability in aqueous solution under long-term storage conditions (related substances); type: physicochemical; conditions: 25° C., 75% RH
Procedure, shortened: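 Test substances dissolved in water at 1 mg/ml, sealed in glass vials and held at 25° C./75% RH. Related substances measured at 1, 2, 4, 8 and 12 weeks.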

[4] = Table 5, study of YDE-029 to YDE-043
[5] = Table 7, study of YDE-029 to YDE-043, 3 mg/ml
[6] = Table 4, study of YDE-001 to YDE-028
[7] = Table 6, study of YDE-001 to YDE-028, 3 mg/ml

Structure (SMILES) | Amount of related substances (after 12 weeks) [3] [%] | Tear Volumes, Day 7 [1, 4] [mm^3] | Tear Volumes, Day 14 [1, 4] [mm^3] | Permeability of fluorescent dye [2, 5] [%] | Change in amount of tear secretion as compared with the ELGE control group ([1]; study of YDE-029 to YDE-043) | Tear Volumes, Day 7 [1, 6] [mm^3] | Tear Volumes, Day 14 [1, 6] [mm^3] | Change in amount of tear secretion as compared with the ELGE control group ([1]; study of YDE-001 to YDE-028) | Permeability of fluorescent dye [2, 7] [%]
CC(C)C[C@H](NC(=O)CNC(=O)[C@H](CC(C)C)NC(=O)[C@H](CCC(N)=O)NC(=O)CNC(=O)[C@@H]1CC(=O)CN1)C(=O)N[C@@H](C)C(=O)NCC(=O)N1CCC[C@H]1C(=O)N[C@@H](CCCCN)C(=O)O [YDE-035] (H-[Pro(4-oxo)]GQLGLAGPK-OH) | 3.89 | 4.96 ± 0.96 | 6.25 ± 0.79 | 27.62 ± 6.51 | – | – | – | – | –
CC(C)C[C@H](NC(=O)CNC(=O)[C@H](CC(C)C)NC(=O)[C@H](CCC(N)=O)NC(=O)CNC(=O)[C@@H]1CCC(=O)N1)C(=O)N[C@@H](C)C(=O)NCC(=O)N1CCC[C@H]1C(=O)N[C@@H](CCCCN)C(=O)O [YDE-036] ([pGlu]GQLGLAGPK-OH) | 8.77 | 4.95 ± 1.05 | 5.13 ± 1.03 | 57.87 ± 22.91 | did not show any significant changes | – | – | – | –
CCC(C)[C@H](NC(=O)[C@H](CCC(N)=O)NC(=O)CNC(=O)[C@@H]1C[C@@H](O)CN1)C(=O)NCC(=O)N[C@@H](CC(C)C)C(=O)N[C@@H](C)C(=O)NCC(=O)N1CCC[C@H]1C(=O)N[C@@H](CCCCN)C(=O)O (some centres unmarked) [YDE-010] (H-[Hyp]GQ[Ile(3ξ)]GLAGPK-OH) | 4.39 | – | – | – | – | 3.42 ± 1.31 | 4.35 ± 1.36 | did not show any significant changes | 49.29 ± 12.06
CC(C)C[C@H](NC(=O)CNC(=O)[C@H](CCC(N)=O)NC(=O)[C@H](CCC(N)=O)NC(=O)CNC(=O)[C@@H]1C[C@@H](O)CN1)C(=O)N[C@@H](C)C(=O)NCC(=O)N1CCC[C@H]1C(=O)N[C@@H](CCCCN)C(=O)O [YDE-003] (H-[Hyp]GQQGLAGPK-OH) | 6.86 | – | – | – | – | 4.13 ± 1.76 | 4.88 ± 1.57 | – | 40.45 ± 6.46
CC(C)C[C@H](NC(=O)CNC(=O)[C@H](CCC(=O)O)NC(=O)[C@H](CCC(N)=O)NC(=O)CNC(=O)[C@@H]1C[C@@H](O)CN1)C(=O)N[C@@H](C)C(=O)NCC(=O)N1CCC[C@H]1C(=O)N[C@@H](CCCCN)C(=O)O [YDE-001] (H-[Hyp]GQEGLAGPK-OH) | 3.92 | – | – | – | – | 4.88 ± 1.62 | 5.92 ± 2.19 | – | 25.49 ± 11.62

More lines, main results first:

Amount of related substances (after 12 weeks) [3] [%] | Structure (SMILES) | Tear Volumes, Day 7 [1, 4] [mm^3] | Tear Volumes, Day 14 [1, 4] [mm^3] | Permeability of fluorescent dye [2, 5] [%] | Change in amount of tear secretion as compared with the ELGE control group ([1]; study of YDE-029 to YDE-043) | Tear Volumes, Day 7 [1, 6] [mm^3] | Tear Volumes, Day 14 [1, 6] [mm^3] | Change in amount of tear secretion as compared with the ELGE control group ([1]; study of YDE-001 to YDE-028) | Permeability of fluorescent dye [2, 7] [%]
1.25 | CC(C)C[C@H](NC(=O)CNC(=O)[C@H](CC(C)C)NC(=O)[C@H](CCC(N)=O)NC(=O)CNC(=O)[C@@H]1C[C@H](O)CN1)C(=O)N[C@@H](C)C(=O)NCC(=O)N1CCC[C@H]1C(=O)N[C@@H](CCCCN)C(=O)O [YDE-034] (H-[cisHyp]GQLGLAGPK-OH) | 6.16 ± 1.01 | 6.43 ± 1.86 | 32.17 ± 12.94 | did not show any significant changes | – | – | – | –
12.74 | COC(=O)C[C@H](NC(=O)[C@H](CCC(N)=O)NC(=O)CNC(=O)[C@@H]1C[C@@H](O)CN1)C(=O)NCC(=O)N[C@@H](CC(C)C)C(=O)N[C@@H](C)C(=O)NCC(=O)N1CCC[C@H]1C(=O)N[C@@H](CCCCN)C(=O)O [YDE-027] (H-[Hyp]GQD(OMe)GLAGPK-OH) | – | – | – | – | 2.82 ± 0.86 | 3.95 ± 1.52 | did not show any significant changes | 50.24 ± 11.94
2.74 | CC(C)C[C@H](NC(=O)[C@@H]1CCCN1C(=O)CNC(=O)[C@H](C)NC(=O)[C@H](CC(C)C)NC(=O)CNC(=O)[C@H](CC(C)C)NC(=O)[C@H](CCC(N)=O)NC(=O)CNC(=O)[C@@H]1C[C@@H](O)CN1)C(=O)O [YDE-030] (H-[Hyp]GQLGLAGPL-OH) | 5.69 ± 1.79 | 6.65 ± 2.17 | 30.60 ± 13.61 | did not show any significant changes | – | – | – | –
5.6 | CC(C)C[C@H](NC(=O)CNC(=O)[C@H](CC(C)C)NC(=O)[C@H](CCC(N)=O)NC(=O)CNC(=O)[C@@H]1C[C@@H](O)CN1)C(=O)N[C@@H](C)C(=O)NCC(=O)N1CCC[C@H]1C(=O)N[C@@H](CCCCO)C(=O)O [YDE-033] (H-[Hyp]GQLGLAGP[X1]-OH) | 4.99 ± 1.20 | 4.54 ± 1.16 | 60.55 ± 21.22 | did not show any significant changes | – | – | – | –
19.23 | CC(C)C[C@H](NC(=O)[C@H](Cc1c[nH]cn1)NC(=O)[C@H](CC(=O)O)NC(=O)[C@H](CCC(N)=O)NC(=O)CNC(=O)[C@@H]1C[C@@H](O)CN1)C(=O)N[C@@H](C)C(=O)NCC(=O)N1CCC[C@H]1C(=O)N[C@@H](CCCCN)C(=O)O [YDE-022] (H-[Hyp]GQDHLAGPK-OH) | – | – | – | – | 3.19 ± 0.67 | 4.10 ± 0.95 | did not show any significant changes | 47.82 ± 10.01
3.67 | CC(C)C[C@H](NC(=O)CNC(=O)[C@H](CO)NC(=O)[C@H](CCC(N)=O)NC(=O)CNC(=O)[C@@H]1C[C@@H](O)CN1)C(=O)N[C@@H](C)C(=O)NCC(=O)N1CCC[C@H]1C(=O)N[C@@H](CCCCN)C(=O)O [YDE-006] (H-[Hyp]GQSGLAGPK-OH) | – | – | – | – | 3.44 ± 1.69 | 5.35 ± 1.68 | – | 33.23 ± 13.26
3.57 | CC(C)C[C@H](NC(=O)CNC(=O)[C@H](Cc1ccccc1)NC(=O)[C@H](CCC(N)=O)NC(=O)CNC(=O)[C@@H]1C[C@@H](O)CN1)C(=O)N[C@@H](C)C(=O)NCC(=O)N1CCC[C@H]1C(=O)N[C@@H](CCCCN)C(=O)O [YDE-012] (H-[Hyp]GQFGLAGPK-OH) | – | – | – | – | 3.68 ± 0.99 | 5.67 ± 1.86 | – | 31.01 ± 11.38
25.39 | CC(C)C[C@H](NC(=O)[C@H](C)NC(=O)[C@H](CC(=O)O)NC(=O)[C@H](CCC(N)=O)NC(=O)CNC(=O)[C@@H]1C[C@@H](O)CN1)C(=O)N[C@@H](C)C(=O)NCC(=O)N1CCC[C@H]1C(=O)N[C@@H](CCCCN)C(=O)O [YDE-018] (H-[Hyp]GQDALAGPK-OH) | – | – | – | – | 3.75 ± 1.54 | 4.99 ± 1.60 | – | 38.19 ± 10.96
